Results taken from PubChem BioAssay (NCI).
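A five-concentration, 48-hour dose response in 96-well plates underlies each endpoint, interpolated linearly between surrounding concentrations. TGI is the concentration that stops growth completely.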

Assays:
Assay in all cases: DTP human tumour cell line panel, 48 h
OVCAR-4 ovarian = system: OVCAR-4 ovarian
M14 melanoma = system: M14 melanoma
HCC-2998 colon = system: HCC-2998 colon
RXF 393 renal = system: RXF 393 renal
SK-MEL-5 melanoma = system: SK-MEL-5 melanoma
DU-145 prostate = system: DU-145 prostate
CCRF-CEM leukemia = system: CCRF-CEM leukemia
SK-OV-3 ovarian = system: SK-OV-3 ovarian
U251 CNS = system: U251 CNS
MDA-N = system: MDA-N
LOX IMVI melanoma = system: LOX IMVI melanoma
EKVX NSCLC = system: EKVX NSCLC
HL-60(TB) leukemia = system: HL-60(TB) leukemia
T-47D breast = system: T-47D breast
SF-539 CNS = system: SF-539 CNS
ACHN renal = system: ACHN renal

Structure (SMILES) | TGI (OVCAR-4 ovarian) | TGI (M14 melanoma) | TGI (HCC-2998 colon) | TGI (RXF 393 renal) | TGI (SK-MEL-5 melanoma) | TGI (DU-145 prostate) | TGI (CCRF-CEM leukemia) | TGI (SK-OV-3 ovarian) | TGI (U251 CNS) | TGI (MDA-N) | TGI (LOX IMVI melanoma) | TGI (EKVX NSCLC) | TGI (HL-60(TB) leukemia) | TGI (T-47D breast) | TGI (SF-539 CNS) | TGI (ACHN renal)
COc1ccc2c(c1)-c1c(c3ccccc3n1CCN1CCCCC1)CC2 | > 100 µM | > 55.8 µM | 19.2 µM | > 100 µM | 30.1 µM | > 100 µM | 74 µM | 53 µM | 56.7 µM | 67.5 µM | 33.3 µM | 70.5 µM | 20.4 µM | > 94.4 µM | 39.3 µM | > 100 µM
CC(=O)NNc1nc(C)c(C(/C=C/c2ccccc2O)=N/NC(=O)c2ccncc2)s1 | > 100 µM | > 100 µM | > 100 µM | > 100 µM | > 100 µM | > 100 µM | > 100 µM | > 100 µM | > 100 µM | > 100 µM | > 100 µM | > 100 µM | > 100 µM | > 100 µM | > 100 µM | > 100 µM
COC(=O)C1=C(C(=O)OC)C(C(=O)c2ccccc2)N2N=C(c3ccc(Cl)cc3)C=CC12 (centres undefined) | > 100 µM | > 100 µM | > 100 µM | > 100 µM | > 100 µM | > 100 µM | > 100 µM | > 100 µM | > 100 µM | > 100 µM | > 100 µM | > 100 µM | > 100 µM | > 100 µM | > 100 µM | > 100 µM
COC(=O)C(Cc1ccccc1)C(=O)NC(CNC(=O)OCc1ccccc1)C(=O)OCc1ccccc1 (centres undefined) | > 100 µM | 30.4 µM | > 95.4 µM | 67.3 µM | 34 µM | > 100 µM | 48.9 µM | > 100 µM | > 100 µM | 58 µM | 36 µM | > 100 µM | > 67.9 µM | > 100 µM | > 100 µM | > 100 µM
CC1=CC[C@@]2(C)[C@@H]([C@@H]1C)[C@H]1CC[C@@H]3[C@@]4(C)CC[C@H](O)C(C)(C)[C@@H]4CC[C@@]3(C)[C@]1(C)C[C@@H]2O | > 82.2 µM | 32.3 µM | 37.9 µM | 28.5 µM | > 62 µM | 25.6 µM | > 53.1 µM | > 64.7 µM | 23.1 µM | > 55.4 µM | 16 µM | 23.6 µM | > 100 µM | > 74.9 µM | > 55.7 µM | 36 µM
NC(=O)CC1(O)C=CC(=O)C=C1 | > 100 µM | > 100 µM | > 100 µM | > 100 µM | > 100 µM | > 100 µM | > 100 µM | > 100 µM | > 100 µM | > 100 µM | > 100 µM | > 100 µM | > 100 µM | > 100 µM | > 100 µM | > 100 µM
Nc1ccccc1C(=O)NNC(=O)c1ccccc1N | > 100 µM | > 100 µM | > 100 µM | > 100 µM | > 100 µM | > 100 µM | > 100 µM | > 100 µM | > 100 µM | > 100 µM | > 100 µM | > 100 µM | > 100 µM | > 100 µM | > 100 µM | > 100 µM
Cc1cc2c(cc1Cl)SC(NNC(=O)c1ccncc1)=NS2(=O)=O | > 10 µM | > 10 µM | > 10 µM | > 10 µM | > 10 µM | > 10 µM | > 10 µM | > 10 µM | > 10 µM | > 10 µM | > 10 µM | > 10 µM | > 10 µM | > 10 µM | > 10 µM | > 10 µM
CNC(=O)C(C)NC(=O)C(Cc1ccccc1)NC(=O)OC(C)(C)C (centres undefined) | – | > 100 µM | > 100 µM | > 100 µM | > 100 µM | > 100 µM | > 100 µM | > 100 µM | > 100 µM | > 100 µM | > 100 µM | > 100 µM | > 100 µM | > 100 µM | > 100 µM | > 100 µM
CCOC(=O)C1C(C(C)C)C2(C#N)C(=N)OC1(C)C2(C#N)C#N (centres undefined) | – | > 100 µM | > 100 µM | > 100 µM | > 100 µM | > 100 µM | > 100 µM | > 100 µM | > 100 µM | 33.6 µM | > 100 µM | > 100 µM | > 100 µM | > 100 µM | > 100 µM | > 100 µM
COc1ccc(-c2cc(=O)c3c(O)c(OC)c(O)cc3o2)cc1O | > 100 µM | > 75 µM | > 100 µM | > 64.8 µM | 14.9 µM | > 100 µM | > 31.8 µM | > 93.8 µM | > 100 µM | > 100 µM | 32.7 µM | > 87.1 µM | 14.2 µM | > 100 µM | 21.9 µM | > 100 µM
CC1=C(C#N)C(=O)N(/N=C/c2ccc(Cl)cc2)C(=O)/C1=c1\o/c(=C2/C(=O)N(/N=C/c3ccc(Cl)cc3)C(=O)C(C#N)=C2C)c2nccnc12 | > 100 µM | > 100 µM | > 100 µM | > 100 µM | > 100 µM | > 100 µM | > 100 µM | > 100 µM | > 100 µM | > 100 µM | > 100 µM | > 100 µM | > 100 µM | > 100 µM | > 100 µM | > 100 µM
Cc1ccc(S(=O)(=O)Oc2coc(CO)cc2=O)cc1 | 32.3 µM | 25.9 µM | 27 µM | 30 µM | 33.7 µM | 27.1 µM | 10.7 µM | 37.7 µM | 23.7 µM | 25.8 µM | 14.9 µM | 30.1 µM | 12.5 µM | 30 µM | 87.8 µM | 38.2 µM
O=c1[nH]c2nccn2c(Cl)c1Br | 34.9 µM | 34.5 µM | 36 µM | 20.8 µM | 64.9 µM | > 100 µM | 46.7 µM | 86.9 µM | 34.4 µM | 45.8 µM | 34.4 µM | 40.3 µM | 33.5 µM | 67.8 µM | > 100 µM | 70.1 µM
CCN(CC)CCN1CCN=c2c3cc(OC)ccc3n3cnc4ccc1c2c43 | 1.26 µM | 2.85 µM | 2.13 µM | 1.52 µM | 3.27 µM | 4.39 µM | 1.71 µM | 5.16 µM | 2.74 µM | 1.79 µM | 1.07 µM | 3.21 µM | 1.2 µM | 23.3 µM | 0.969 µM | 3.61 µM
CCC/C(Cl)=N\OC(=O)Nc1ccc(Br)cc1 | 48.2 µM | 25.2 µM | 32.9 µM | 31 µM | 27.7 µM | 27.2 µM | 4.3 µM | 30.5 µM | 32.1 µM | 27.3 µM | 10.6 µM | 29 µM | 7.22 µM | 25.2 µM | 32.9 µM | 20.3 µM
